Reference: PMC9116245, “New 1,2,3-triazole linked ciprofloxacin-chalcones induce DNA damage by inhibiting human topoisomerase I& II and tubulin polymerization” (Journal of Enzyme Inhibition and Medicinal Chemistry, 2022)

Assays:
ATR/CHK1/Cdc25C pathway = assay: Western blot of ATR-Chk1-Cdc25C cascade in HCT116 cells; format: cell-based, human
Procedure: To clarify the molecular mechanism responsible for inducing G2/M phase arrest in HCT116 following the treatment with the synthesised compounds, the signalling in the checkpoint pathway that regulates the G2/M transition was investigated. The mammalian cells respond to the DNA damage through 2 different kinase-signalling cascades (ATR-Chk1 and ATM-Chk2). First, the effect of the synthesised compounds on ATM and ATR phosphorylation was tested. […] Then, the phosphorylation of downstream effectors of ATM/ATR, phospho-Chk1-S269, and phospho-Chk2-T68 kinases was explored. […] It is well known that in vitro activation of Chk1 phosphorylates Cdc25C on serine-216. Therefore, the impact of the synthesised compounds on the Cdc25C phosphorylation at Ser-216 was investigated.
Western blotting analysis for HCT116 cells was performed according to the reported procedure in the literature[77–79] to determine the effects of CP hybrids; 4a, 4b, 4e, 4i, and 4j on the expression of polymerised tubulin, γH2AX, p-ATR, p-CHK1, and p-Cdc25C by using the appropriate antibody. See Supplementary Appendix A.

γH2AX = γH2AX immunofluorescence in HCT116 cells; format: cell-based, human; conditions: HCT116, IC50 of compound
Description: DNA damage is a major reason for inhibiting proliferation and inducing cytotoxicity in cancer cells as well as the main downstream cascade for the Topo-I, Top-II, and tubulin polymerisation inhibition. The phosphorylation of the histone H2AX always occurs after DNA damage forming double-stranded breaks (DSBs). Therefore, we tested the capability of the potent prepared compounds to trigger DNA double strand breaks through detection of the phosphorylation of γH2AX using two different techniques, Immunofluorescence, and western blotting.
(§1) HCT116 cells were cultured and treated with the IC50 of the potent compounds (4a, 4b, 4e, 4i, and 4j) or DMSO (control), fixed, permeabilized, and they were incubated with either γH2AX or α-tubulin antibody as the reported procedure in the literature. Confocal images were captured using a Confocal Microscope with a 63X objective. All images were processed using ImageJ software. See Supplementary Appendix A.

HCT116 cells = assay: Analysis of cell cycle distribution; format: cell-based, human; conditions: HCT116, different concentrations, 24 h
Description: Generally, the mammalian cells counteract the DNA damage by different mechanisms including the cell cycle arrest to allow the cell to repair the damage. There are 2 checkpoints that control DNA damage. The first checkpoint is at the G1/S transition while the other checkpoint is at the G2/M transition. To cover the mechanisms of the synthesised compounds in inhibiting cell proliferation, we analysed the distribution of cell cycle of HCT116 cells following the treatment with different doses of 4a, 4b, 4e, 4i, and 4j. […] See Supplementary Appendix A.

[1] = biological target: T1, recombinant human DNA topoisomerase I (Homo sapiens, UniProt P11387); assay: Human DNA Topoisomerase I Assay Kit (ProFoldin); format: biochemical; conditions: compounds at their IC50 values, reference camptothecin
T1 construct: purchased Sigma-Aldrich
T1 sequence (P11387 1-765): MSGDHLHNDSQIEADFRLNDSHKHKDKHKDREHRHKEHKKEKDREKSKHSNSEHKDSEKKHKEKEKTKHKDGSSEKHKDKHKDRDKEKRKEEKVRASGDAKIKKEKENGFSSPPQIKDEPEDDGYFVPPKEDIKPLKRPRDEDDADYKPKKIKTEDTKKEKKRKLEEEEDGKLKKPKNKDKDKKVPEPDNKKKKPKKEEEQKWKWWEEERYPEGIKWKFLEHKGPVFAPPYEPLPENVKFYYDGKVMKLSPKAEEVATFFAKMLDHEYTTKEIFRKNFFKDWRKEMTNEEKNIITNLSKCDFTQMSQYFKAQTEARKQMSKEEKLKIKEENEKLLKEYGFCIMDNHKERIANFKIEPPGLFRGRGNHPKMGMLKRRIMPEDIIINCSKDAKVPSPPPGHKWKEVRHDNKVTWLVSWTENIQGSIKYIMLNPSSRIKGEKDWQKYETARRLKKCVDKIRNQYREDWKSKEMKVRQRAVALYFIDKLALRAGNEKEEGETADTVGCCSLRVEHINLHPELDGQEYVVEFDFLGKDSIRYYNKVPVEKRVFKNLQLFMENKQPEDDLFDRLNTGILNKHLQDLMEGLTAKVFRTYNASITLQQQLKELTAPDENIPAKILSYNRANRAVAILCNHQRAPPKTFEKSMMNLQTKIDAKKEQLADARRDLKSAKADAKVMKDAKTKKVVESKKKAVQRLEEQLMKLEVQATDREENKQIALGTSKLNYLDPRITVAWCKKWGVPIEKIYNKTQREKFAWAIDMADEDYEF

Topo IIα = biological target: T2, Topo IIα (Homo sapiens, UniProt P11388); assay: Human Topoisomerase II assay kit (TG1001); format: biochemical; conditions: 10 µM
T2 construct: purchased Topogen Inc. TG1001
Procedure: Second, the inhibitory activity of Topo IIα was evaluated for compounds 4a, 4b, 4e, 4i, and 4j utilising Human Topoisomerase II assay kit (TG1001, Topogen Inc.). […] The above results are compatible with our design of these hybrids as Top-II inhibitors.
The inhibitory activity of the selected ciprofloxacin hybrids on human Top-II was tested using a Human Topoisomerase II assay kit (TG1001, Topogen Inc.). In this assay, 1% agarose gel was used, and the compounds were tested at two different concentrations, 10 and 100 µM. Also, etoposide was used as a positive control in this experiment. The assay was performed according to the manufacturer’s protocol. The image of the electrophoretic gel was captured using an imaging system (iBright-CL1500, Thermo Fisher Scientific).

tubulin polymerisation = assay: Tubulin immunofluorescence microscopy in HCT116 cells; format: cell-based, human; conditions: HCT116, IC50 of compound, 36 h
Procedure: The process of tubulin polymerisation in the cells is important for the completion of mitosis and is targeted for cancer treatment. It has been reported that the suppression of tubulin polymerisation will arrest the cells at the G2/M and it eventually leads to cell death. To test the tubulin-disruptive effect of the CP hybrids, HCT116 cells were analysed by immunocytochemistry. HCT116 cells were incubated for 36 h with IC50 of the CP hybrids (4a, 4b, 4e, 4i, and 4j), nocodazole (a well-known tubulin polymerisation inhibitor, as a positive control), DMSO or Paclitaxel (a well-known tubulin polymerisation inducer, as a negative control), and tubulin was visualised by immunofluorescence microscopy. An antibody for α-tubulin was used. […] Moreover, a Western blot was performed to verify the tubulin polymerisation inhibition ability of the synthesised compounds (Figure 8(B)). The level of polymerised tubulin was decreased in HCT116 cells treated with IC50 values of CP hybrids 4a, 4b, 4e, 4i, 4j, or nocodazole.
as §1

T2 sequence (P11388 whole entry): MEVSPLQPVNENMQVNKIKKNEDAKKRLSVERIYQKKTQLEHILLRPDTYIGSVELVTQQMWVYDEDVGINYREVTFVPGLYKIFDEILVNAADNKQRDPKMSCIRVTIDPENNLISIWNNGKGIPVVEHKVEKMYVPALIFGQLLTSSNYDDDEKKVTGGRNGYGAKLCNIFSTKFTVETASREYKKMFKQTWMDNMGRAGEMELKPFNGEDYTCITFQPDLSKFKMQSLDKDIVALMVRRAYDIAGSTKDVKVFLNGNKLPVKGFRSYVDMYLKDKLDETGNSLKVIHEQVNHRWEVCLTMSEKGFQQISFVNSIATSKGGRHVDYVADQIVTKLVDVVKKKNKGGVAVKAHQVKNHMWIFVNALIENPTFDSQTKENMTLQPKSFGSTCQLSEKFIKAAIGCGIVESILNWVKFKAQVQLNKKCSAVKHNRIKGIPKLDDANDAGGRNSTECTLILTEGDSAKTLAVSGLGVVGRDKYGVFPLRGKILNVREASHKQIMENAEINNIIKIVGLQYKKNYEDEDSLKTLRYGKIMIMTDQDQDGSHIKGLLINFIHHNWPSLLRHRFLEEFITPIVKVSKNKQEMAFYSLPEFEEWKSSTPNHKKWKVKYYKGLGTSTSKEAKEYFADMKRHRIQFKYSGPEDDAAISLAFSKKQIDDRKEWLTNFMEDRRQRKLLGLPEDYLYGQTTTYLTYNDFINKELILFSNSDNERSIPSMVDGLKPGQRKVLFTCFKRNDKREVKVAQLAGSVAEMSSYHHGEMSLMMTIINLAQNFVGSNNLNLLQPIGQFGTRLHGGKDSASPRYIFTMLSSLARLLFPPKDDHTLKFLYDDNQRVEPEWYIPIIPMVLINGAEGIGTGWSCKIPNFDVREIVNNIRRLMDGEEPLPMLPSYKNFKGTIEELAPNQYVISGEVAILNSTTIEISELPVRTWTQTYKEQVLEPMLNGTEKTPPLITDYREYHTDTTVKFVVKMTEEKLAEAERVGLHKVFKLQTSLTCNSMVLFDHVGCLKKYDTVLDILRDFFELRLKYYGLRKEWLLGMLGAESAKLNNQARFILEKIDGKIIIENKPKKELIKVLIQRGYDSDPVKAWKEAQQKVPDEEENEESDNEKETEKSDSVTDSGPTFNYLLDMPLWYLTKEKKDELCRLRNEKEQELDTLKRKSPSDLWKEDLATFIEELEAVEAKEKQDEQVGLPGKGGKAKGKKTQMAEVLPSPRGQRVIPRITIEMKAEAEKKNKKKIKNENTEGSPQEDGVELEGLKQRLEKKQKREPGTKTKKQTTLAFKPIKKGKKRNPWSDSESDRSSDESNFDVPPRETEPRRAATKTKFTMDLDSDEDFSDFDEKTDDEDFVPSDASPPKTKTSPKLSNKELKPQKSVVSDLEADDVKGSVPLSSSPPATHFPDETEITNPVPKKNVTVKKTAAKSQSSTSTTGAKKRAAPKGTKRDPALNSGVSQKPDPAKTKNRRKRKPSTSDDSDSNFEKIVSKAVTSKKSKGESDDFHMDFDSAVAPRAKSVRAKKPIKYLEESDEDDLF

Compound: COc1cc(/C=C/C(=O)c2ccc(-n3cc(CN4CCN(c5cc6c(cc5F)c(=O)c(C(=O)O)cn6C5CC5)CC4)nn3)cc2)cc(OC)c1OC [Compound 4j, (E)-1-cyclopropyl-6-fluoro-4-oxo-7–(4-((1–(4-(3-(3,4,5-trimethoxyphenyl)acryloyl)phenyl)-1H-1,2,3-triazol-4-yl)methyl)piperazin-1-yl)-1,4-dihydroquinoline-3-carboxylic acid]
- expressions of p-ATR, p-CHK1, and p-Cdc25C, Western blot (ATR/CHK1/Cdc25C pathway): increased
- γH2AX foci formation (γH2AX): induced γH2AX foci formation
- cell cycle distribution (HCT116 cells): induced G2/M phase cell cycle arrest in a concentration-dependent manner
- Top-I inhibitory activity, enzyme assay kit [1]: less potent Top-1 inhibitor
- Topo-II inhibitory activity (Topo IIα): stronger inhibitory activity than 4b, 4i, and ETO
- tubulin polymerisation, morphological changes by immunofluorescence (tubulin polymerisation): significant tubulin polymerisation inhibition
